The values below come from patent US10245275B2 (ViiV HEALTHCARE UK (NO.4) LIMITED, priority 2014, dated 2019).

The test system of assay [1] is WT (wild-type HIV virus; recombinant NL4-3 virus). In words: microbe, parasite or virus in culture. Type of assay: cell-based, HIV-1. How it is done:
(§1) MT-2 cells and 293T cells were obtained from the NIH AIDS Research and Reference Reagent Program. MT-2 cells were propagated in RPMI 1640 media supplemented with 10% heat-inactivated fetal bovine serum, […]. The 293T cells were propagated in DMEM media supplemented with 10% heat-inactivated fetal bovine serum (FBS), 100 units/mL penicillin G and 100 μg/mL streptomycin. […] A recombinant NL4-3 virus, in which a section of the nef gene from NL4-3 was replaced with the Renilla luciferase gene, was used as a reference virus. In addition, residue Gag P373 was converted to P373S. […] Transfections were performed in 293T cells using LipofectAMINE PLUS from Invitrogen (Carlsbad, Calif.), according to manufacturer's instruction. The virus was titered in MT-2 cells using luciferase enzyme activity as a marker. Luciferase was quantitated using the Dual Luciferase kit from Promega (Madison, Wis.), with modifications to the manufacturer's protocol. The diluted Passive Lysis solution was pre-mixed with the re-suspended Luciferase Assay Reagent and the re-suspended Stop & Glo Substrate (2:1:1 ratio). Fifty (50) μL of the mixture was added to each aspirated well on assay plates and luciferase activity was measured immediately on a Wallac TriLux (Perkin-Elmer). Antiviral activities of inhibitors toward the recombinant virus were quantified by measuring luciferase activity in cells infected for 4-5 days with NLRluc recombinants in the presence serial dilutions of the inhibitor.
WT refers to wild-type HIV virus. […]

For assay [2], the system named is HIV-1 NL4-3 gag A364V virus. Nature of the assay: microbe, parasite or virus in culture. Type of assay: cell-based. The procedure:
as §1
Both recombinant viruses were used as described above in the HIV cell culture assay for the NL4-3 virus.

[3] abbreviates: Human immunodeficiency virus 1, NL43, MT2, read-out: WT (EC50, uM), Table 1 regular screen, MT-2 cells, luciferase readout.
Setting [4] is: Human immunodeficiency virus 1, NL43, MT2, read-out: A364V (EC50, uM), Table 1 regular screen, MT-2 cells, luciferase readout.
The mark [5] stands for this setting: Human immunodeficiency virus 1, NL43, MT2, read-out: WT (EC50, uM), Table 1 regular screen, class symbol.
Setting [6] is: Human immunodeficiency virus 1, NL43, MT2, read-out: A364V (EC50, uM), Table 1 regular screen, class symbol.

Where two headings read alike, the source gives them in different places.

As a reminder, the EC50 is the concentration giving half of the maximal effect. For the compound `C=C(C)[C@@H]1CC[C@]2(NCCC3(O)CCN(C(C)=O)CC3)CC[C@]3(C)[C@H](CC[C@@H]4[C@@]5(C)CC=C(C6=CC[C@](CF)(C(=O)O)CC6)C(C)(C)[C@@H]5CC[C@]43C)[C@@H]12` [Example 2-15, (S)-4-((1R,3aS,5aR,5bR,7aR,11aS,11bR,13aR,13bR)-3a-((2-(1-acetyl-4-hydroxypiperidin-4-yl)ethyl)amino)-5a,5b, 8,8,11a-pentamethyl-1-(prop-1-en-2-yl)-2,3,3a,4,5,5a,5b,6,7,7a,8,11,11a,11b,12,13,13a,13b-octadecahydro-1H-cyclopenta[a]chrysen-9-yl)-1-(fluoromethyl)cyclohex-3-enecarboxylic acid], the EC50 is 0.00173 µM in assay [1] (setting [3]) and 0.151 µM in assay [2] (setting [4]).

For `C=C(C)[C@@H]1CC[C@]2(NCCN3CCS(=O)(=O)CC(C)C3)CC[C@]3(C)[C@H](CC[C@@H]4[C@@]5(C)CC=C(C6=CC[C@](CF)(C(=O)O)CC6)C(C)(C)[C@@H]5CC[C@]43C)[C@@H]12` (stereo partly drawn) [Example 27, (1S)-1-(fluoromethyl)-4-((1R,3aS,5aR,5bR,7aR,11aS,11bR,13aR,13bR)-5a,5b,8,8,11a-pentamethyl-3a-((2-(6-methyl-1,1-dioxido-1,4-thiazepan-4-yl)ethyl)amino)-1-(prop-1-en-2-yl)-2,3,3a,4,5,5a,5b,6,7,7a,8,11,11a,11b,12,13,13a,13b-octadecahydro-1H-cyclopenta[a]chrysen-9-yl)cyclohex-3-enecarboxylic acid], the EC50 is less than 0.05 µM in assay [1] (setting [5]) and greater than 0.05 µM in assay [2] (setting [6]).

With `C=C(C)[C@@H]1CC[C@]2(NCCC3CCOCC3)CC[C@]3(C)[C@H](CC[C@@H]4[C@@]5(C)CC=C(C6=CC[C@](CF)(C(=O)O)CC6)C(C)(C)[C@@H]5CC[C@]43C)[C@@H]12` [Example 9, (S)-1-(fluoromethyl)-4-((1R,3aS,5aR,5bR,7aR,11aS,11bR,13aR,13bR)-5a,5b,8,8,11a-pentamethyl-1-(prop-1-en-2-yl)-3a-((2-(tetrahydro-2H-pyran-4-yl)ethyl)amino)-2,3,3a,4,5,5a,5b,6,7,7a,8,11,11a,11b,12,13,13a,13b-octadecahydro-1H-cyclopenta[a]chrysen-9-yl)cyclohex-3-enecarboxylic acid], the EC50 in assay [1] (setting [5]) was less than 0.05 µM; in assay [2] (setting [6]), greater than 0.05 µM.

`C=C(C)[C@@H]1CC[C@]2(NCC(=O)N3C[C@@H]4C[C@H]3CS4(=O)=O)CC[C@]3(C)[C@H](CC[C@@H]4[C@@]5(C)CC=C(C6=CC[C@](CF)(C(=O)O)CC6)C(C)(C)[C@@H]5CC[C@]43C)[C@@H]12` [Example 37, (S)-4-((1R,3aS,5aR,5bR,7aR,11aS,11bR,13aR,13bR)-3a-((2-((1S,4S)-2,2-dioxido-2-thia-5-azabicyclo[2.2.1]heptan-5-yl)-2-oxoethyl)amino)-5a,5b,8,8,11a-pentamethyl-1-(prop-1-en-2-yl)-2,3,3a,4,5,5a,5b,6,7,7a,8,11,11a,11 b,12,13,13a,13b-octadecahydro-1H-cyclopenta[a]chrysen-9-yl)-1-(fluoromethyl)cyclohex-3-enecarboxylic acid]: the figures for the EC50 in assay [1] (setting [5]) and in assay [2] (setting [6]) were less than 0.05 µM and greater than 0.05 µM, respectively.

`C=C(C)[C@@H]1CC[C@]2(NCCN3CC(C)S(=O)(=O)C(C)C3)CC[C@]3(C)[C@H](CC[C@@H]4[C@@]5(C)CC=C(C6=CC[C@](CF)(C(=O)O)CC6)C(C)(C)[C@@H]5CC[C@]43C)[C@@H]12` (stereo partly drawn) [Example 25, (1S)-4-((1R,3aS,5aR,5bR,7aR,11aS,11bR,13aR,13bR)-3a-((2-(2,6-dimethyl-1,1-dioxidothiomorpholino)ethyl)amino)-5a,5b, 8,8,11a-pentamethyl-1-(prop-1-en-2-yl)-2,3,3a,4,5,5a,5b,6,7,7a,8,11,11a,11b,12,13,13a,13b-octadecahydro-1H-cyclopenta[a]chrysen-9-yl)-1-(fluoromethyl)cyclohex-3-enecarboxylic acid]: the values for the EC50 in assay [1] (setting [5]) and in assay [2] (setting [6]) were less than 0.05 µM and greater than 0.05 µM, respectively.

Consider `C=C(C)[C@@H]1CC[C@]2(NCCN3CCN(C)C3=O)CC[C@]3(C)[C@H](CC[C@@H]4[C@@]5(C)CC=C(C6=CC[C@](CF)(C(=O)O)CC6)C(C)(C)[C@@H]5CC[C@]43C)[C@@H]12` [Example 2-26, (S)-1-(fluoromethyl)-4-((1R,3aS,5aR,5bR,7aR,11aS,11bR,13aR,13bR)-5a,5b,8,8,11a-pentamethyl-3a-((2-(3-methyl-2-oxoimidazolidin-1-yl)ethyl)amino)-1-(prop-1-en-2-yl)-2,3,3a,4,5,5a,5b,6,7,7a,8,11,11a,11b,12,13,13a,13b-octadecahydro-1H-cyclopenta[a]chrysen-9-yl)cyclohex-3-enecarboxylic acid], for which the EC50 in assay [1] (setting [5]) is less than 0.05 µM; in assay [2] (setting [6]) it was greater than 0.05 µM.

In the case of `C=C(C)[C@@H]1CC[C@]2(NCCN3CCC(C(=O)O)(C(=O)OCC)CC3)CC[C@]3(C)[C@H](CC[C@@H]4[C@@]5(C)CC=C(C6=CC[C@@](CF)(C(=O)O)CC6)C(C)(C)[C@@H]5CC[C@]43C)[C@@H]12` [Example 17], the EC50 in assay [1] (setting [3]) turned out to be 0.0194 µM; in assay [2] (setting [4]), 3 µM.

Turning to `C=C(C)[C@@H]1CC[C@]2(NC(CN3CCS(=O)(=O)CC3)C(F)(F)F)CC[C@]3(C)[C@H](CC[C@@H]4[C@@]5(C)CC=C(C6=CC[C@](CF)(C(=O)O)CC6)C(C)(C)[C@@H]5CC[C@]43C)[C@@H]12` (single isomer, unassigned) [Example 42], the EC50 in assay [1] (setting [5]) and in assay [2] (setting [6]) was greater than 0.05 µM in each case.

As for `C=C(C)[C@@H]1CC[C@]2(NCC(=O)N3CCN(S(C)(=O)=O)CC3)CC[C@]3(C)[C@H](CC[C@@H]4[C@@]5(C)CC=C(C6=CC[C@](CF)(C(=O)O)CC6)C(C)(C)[C@@H]5CC[C@]43C)[C@@H]12` [Example 33, (S)-1-(fluoromethyl)-4-((1R,3aS,5aR,5bR,7aR,11aS,11bR,13aR,13bR)-5a,5b,8,8,11a-pentamethyl-3a-((2-(4-(methylsulfonyl)piperazin-1-yl)-2-oxoethyl)amino)-1-(prop-1-en-2-yl)-2,3,3a,4,5,5a,5b,6,7,7a,8,11,11a,11b,12,13,13a,13b-octadecahydro-1H-cyclopenta[a]chrysen-9-yl)cyclohex-3-enecarboxylic acid], the EC50 in assay [1] (setting [5]) was less than 0.05 µM; in assay [2] (setting [6]), greater than 0.05 µM.

For the compound `C=C(C)[C@@H]1CC[C@]2(NCCN3CCCC3=O)CC[C@]3(C)[C@H](CC[C@@H]4[C@@]5(C)CC=C(C6=CC[C@](CF)(C(=O)O)CC6)C(C)(C)[C@@H]5CC[C@]43C)[C@@H]12` [Example 20, (S)-1-(fluoromethyl)-4-((1R,3aS,5aR,5bR,7aR,11aS,11bR,13aR,13bR)-5a,5b, 8,8,11a-pentamethyl-3a-((2-(2-oxopyrrolidin-1-yl)ethyl)amino)-1-(prop-1-en-2-yl)-2,3,3a,4,5,5a,5b,6,7,7a,8,11,11a,11b,12,13,13a,13b-octadecahydro-1H-cyclopenta[a]chrysen-9-yl)cyclohex-3-enecarboxylic acid], the EC50 in assay [1] (setting [3]) was 0.00253 µM; in assay [2] (setting [4]), 0.129 µM.

Regarding `C=C(C)[C@@H]1CC[C@]2(NCCS(=O)(=O)CCN3CCS(=O)(=O)CC3)CC[C@]3(C)[C@H](CC[C@@H]4[C@@]5(C)CC=C(C6=CC[C@](CF)(C(=O)O)CC6)C(C)(C)[C@@H]5CC[C@]43C)[C@@H]12` [Example 43, (S)-4-((1R,3aS,5aR,5bR,7aR,11aS,11bR,13aR,13bR)-3a-((2-((2-(1,1-dioxidothiomorpholino)ethyl)sulfonyl)ethyl)amino)-5a,5b,8,8,11a-pentamethyl-1-(prop-1-en-2-yl)-2,3,3a,4,5,5a,5b,6,7,7a,8,11,11a,11b,12,13,13a,13b-octadecahydro-1H-cyclopenta[a]chrysen-9-yl)-1-(fluoromethyl)cyclohex-3-enecarboxylic acid], the figures for the EC50 in assay [1] (setting [3]) and in assay [2] (setting [4]) were 0.00335 µM and 0.585 µM, respectively.

`CC(C)[C@@H]1CC[C@]2(NCCN3CCS(=O)(=O)CC3)CC[C@]3(C)[C@H](CC[C@@H]4[C@@]5(C)CC=C(C6CCC(CF)(C(=O)O)CC6)C(C)(C)[C@@H]5CC[C@]43C)[C@@H]12` (stereo partly drawn) [Example 23, 4-((1S,3aS,5aR,5bR,7aR,11aS,11bR,13aR,13bR)-3a-((2-(1,1-dioxidothiomorpholino)ethyl)amino)-1-isopropyl-5a,5b, 8,8,11a-pentamethyl-2,3,3a,4,5,5a,5b,6,7,7a,8,11,11a,11b,12,13,13a,13b-octadecahydro-1H-cyclopenta[a]chrysen-9-yl)-1-(fluoromethyl)cyclohexanecarboxylic acid]: the EC50 is less than 0.05 µM in assay [1] (setting [5]) and greater than 0.05 µM in assay [2] (setting [6]).
